In brackets after ≈: the same amount, converted by molar mass.
Legend:
C. freundii DSM-30039 = assay: MIC, microbroth dilution susceptibility assay; format: cell-based; conditions: Citrobacter freundii, DSM30039; large panel, Table 2a
Method in brief: (§1)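 Overnight cultures were diluted in cation-adjusted Müller-Hinton broth to 10^4-10^6 cfu/mL and grown with serially diluted compound (from DMSO stocks) for approx. 16 h at 30-37° C. MIC is the lowest concentration with no visible bacterial growth.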

S. aureus ATCC-29213 = assay: MIC, microbroth dilution susceptibility assay; format: cell-based; conditions: Staphylococcus aureus, ATCC29213; large panel, Table 2a
Method in brief: as §1

P. aeruginosa DSM-24600 = assay: MIC, microbroth dilution susceptibility assay; format: cell-based; conditions: Pseudomonas aeruginosa, DSM24600; large panel, Table 2a
Method in brief: as §1

S. aureus Newman = assay: MIC, microbroth dilution susceptibility assay; format: cell-based; conditions: Staphylococcus aureus, NEWMAN; small panel, Tables 1a/1b; read-out: MIC S. aureus Newman
Method in brief: as §1

K. pneumoniae DSM-30104 = assay: MIC, microbroth dilution susceptibility assay; format: cell-based; conditions: Klebsiella pneumoniae, DSM30104; large panel, Table 2a
Method in brief: as §1

E. cloacae DSM-30054 = assay: MIC, microbroth dilution susceptibility assay; format: cell-based; conditions: Enterobacter cloacae, DSM30054; large panel, Table 2a
Method in brief: as §1

P. aeruginosa DSM-46316 = assay: MIC, microbroth dilution susceptibility assay; format: cell-based; conditions: Pseudomonas aeruginosa, DSM46316; large panel, Table 2a
Method in brief: as §1

E. coli WT DSM-1116 = assay: MIC, microbroth dilution susceptibility assay; format: cell-based; conditions: Escherichia coli, DSM1116; small panel, Tables 1a/1b; no visual growth after approx. 16 h; read-out: MIC E. coli WT DSM-1116
Method in brief: as §1

E. aerogenes DSM-30053 = assay: MIC, microbroth dilution susceptibility assay; format: cell-based; conditions: Klebsiella aerogenes, DSM30053; large panel, Table 2a
Method in brief: as §1

P. mirabilis DSM-2140 = assay: MIC, microbroth dilution susceptibility assay; format: cell-based; conditions: Proteus mirabilis, DSM2140; large panel, Table 2a
Method in brief: as §1

S. epidermidis DSM-28765 = assay: MIC, microbroth dilution susceptibility assay; format: cell-based; conditions: Staphylococcus epidermidis, DSM28765; large panel, Table 2a
Method in brief: as §1

E. faecalis ATCC-29212 = assay: MIC, microbroth dilution susceptibility assay; format: cell-based; conditions: Enterococcus faecalis, ATCC29212; large panel, Table 2a; TSB
Method in brief: as §1

S. marcescens DSM-30121 = assay: MIC, microbroth dilution susceptibility assay; format: cell-based; conditions: Serratia marcescens, DSM30121; large panel, Table 2a
Method in brief: as §1

A. baumannii DSM-30008 = assay: MIC, microbroth dilution susceptibility assay; format: cell-based; conditions: Acinetobacter baumannii, DSM30008; large panel, Table 2a
Method in brief: as §1

E. coli WT = assay: MIC, microbroth dilution susceptibility assay; format: cell-based; conditions: for MIC: Escherichia coli
Method in brief: as §1

P. aeruginosa WT PA14 = assay: MIC, microbroth dilution susceptibility assay; format: cell-based; conditions: Pseudomonas aeruginosa, PA14, small panel, Tables 1a/1b; read-out: MIC P. aeruginosa WT PA14
Method in brief: as §1

S. pneumoniae DSM-20566 = assay: MIC, microbroth dilution susceptibility assay; format: cell-based; conditions: Streptococcus pneumoniae, DSM20566; large panel, Table 2a; TSB
Method in brief: as §1

P. vulgaris DSM-2140 = assay: MIC, microbroth dilution susceptibility assay; format: cell-based; conditions: Proteus vulgaris, DSM2140; large panel, Table 2a
Method in brief: as §1

E. coli ΔtolC = assay: microbe, parasite or virus in culture; format: cell-based; conditions: Escherichia coli, 16 h, read-out: MIC E. coli ΔtolC, small panel, Tables 1a/1b; no visual growth after approx. 16 h
Method in brief: as §1

[1] = test system: E. coli WT-3 [gyrA(S83L,D87G)]; assay: microbe, parasite or virus in culture; format: cell-based; conditions: for MIC: Escherichia coli, read-out: MIC E. coli WT-3 [gyrA(S83L,D87G)]
Method in brief: as §1

P. aeruginosa ΔmexAB = assay: microbe, parasite or virus in culture; format: cell-based; conditions: Pseudomonas aeruginosa, 16 h, read-out: MIC P. aeruginosa ΔmexAB, efflux-deficient strain; small panel, Tables 1a/1b
Method in brief: as §1

[2] = test system: E. coli WT-III [marRΔ74bp]; format: cell-based; conditions: fluoroquinolone-resistant mutant; Table 2a
Method: (§2) Cystobactamid derivatives synthesized were tested against relevant Gram negative and positive bacteria of clinical interest. Experimental procedures used for the biological characterization of the compounds are the same as previously described in WO 2016/082934.
(§3) Bacterial strains used in susceptibility assays (minimum inhibitory concentration, MIC) were either part of our internal strain collection or purchased from the German Collection of Microorganisms and Cell Cultures (Deutsche Sammlung von Mikroorganismen und Zellkulturen, DSMZ) and the American Type Culture Collection (ATCC). The susceptible E. coli strain (WT) and fluoroquinolone-resistant mutants E. coli WT-3 and WT-III were kindly provided by Prof Dr. P. Heisig, Pharmaceutical Biology and Microbiology, University of Hamburg, Germany. The efflux-deficient strain P. aeruginosa ΔmexAB was kindly provided by Prof Dr. S. Häußler, Institute for Molecular Bacteriology, TWINCORE, Hannover, Germany. All compounds were prepared as DMSO stocks and MIC values were determined in standard microbroth dilution assays in 96-well MTPs as described in Baumann et al., Angew Chem Int Ed Engl. 2014; 53(52):14605-9. In brief, overnight cultures of bacteria were diluted in either tryptic soy broth (TSB: 1.7% peptone casein, 0.3% peptone soymeal, 0.25% glucose, 0.5% NaCl, 0.25% K2HPO4; pH 7.3; S. pneumoniae and E. faecalis) or cation-adjusted Müller-Hinton Broth (BBL™, BD; all other bacteria) and adjusted to 10^4-10^6 cfu/mL. Bacteria were grown in the presence of the derivatives in serial dilution for approx. 16 h at 30-37° C. MIC values were determined and were defined as the antibiotic concentration at which no visual growth of bacteria was observed.

E. coli gyrase = target: T1, E. coli gyrase (Escherichia coli, UniProt P0AES4+P0AES6); assay: E. coli gyrase supercoiling (sc) assay; format: biochemical; conditions: supercoiling assay kit, agarose gel quantification; read-out: Ec gyrase sc IC50
T1 construct: purchased Inspiralis
Method: The target activity on E. coli gyrase was assessed as described in Baumann et al., Angew Chem Int Ed Engl. 2014; 53(52):14605-9 using a commercial supercoiling (sc) assay kit from Inspiralis according to the manufacturer's instructions. The samples were separated on 0.8% (w/v) agarose gels and relaxed and supercoiled plasmid was visualized by ethidium bromide staining. Half-inhibitory concentrations (IC50) were calculated after image analysis and quantification (ImageJ) based on sigmoidal curve fitting (OriginPro).

C. freundii = assay: MIC, microbroth dilution susceptibility assay (Table 2b); format: cell-based; conditions: larger panel
Method: as §2, §3

P. vulgaris = assay: as above; format: cell-based; conditions: larger panel
Method: as §2, §3

K. pneumoniae = assay: as above; format: cell-based; conditions: larger panel
Method: as §2, §3

P. mirabilis = assay: as above; format: cell-based; conditions: larger panel
Method: as §2, §3

E. cloacae = assay: as above; format: cell-based; conditions: larger panel
Method: as §2, §3

S. epidermidis = assay: as above; format: cell-based; conditions: larger panel
Method: as §2, §3

S. marcescens = assay: as above; format: cell-based; conditions: larger panel
Method: as §2, §3

E. faecalis = assay: as above; format: cell-based; conditions: larger panel
Method: as §2, §3

E. aerogenes = assay: as above; format: cell-based; conditions: larger panel
Method: as §2, §3

P. aeruginosa ESBL 1 = assay: as above; format: cell-based
Method: as §2, §3

P. aeruginosa ESBL 2 = assay: as above; format: cell-based
Method: as §2, §3

A. baumannii = assay: as above; format: cell-based; conditions: larger panel
Method: as §2, §3

Compound: CC(C)Oc1c(NC(=O)c2ccc(NC(=O)[C@H](CC(N)=O)NC(=O)c3ccc(NC(=O)c4ccc([N+](=O)[O-])cc4)cc3)cc2)ccc(C(=O)Nc2ccc(C(=O)O)cc2)c1O [Compound 28, (S)-4-(4-(4-(4-amino-2-(4-(4-nitrobenzamido)benzamido)-4-oxobutanamido)benzamido)-2-hydroxy-3-isopropoxybenzamido)benzoic acid]
- MIC (C. freundii DSM-30039): 0.06 µg/mL (≈ 0.0721 µM)
- MIC (S. aureus ATCC-29213): 0.5 µg/mL (≈ 0.601 µM)
- MIC (P. aeruginosa DSM-24600): > 64 µg/mL
- MIC (S. aureus Newman): 0.5 µg/mL (≈ 0.601 µM)
- MIC (K. pneumoniae DSM-30104): > 64 µg/mL
- MIC (E. cloacae DSM-30054): 0.25 µg/mL (≈ 0.301 µM)
- MIC (P. aeruginosa DSM-46316): > 64 µg/mL
- MIC (E. coli WT DSM-1116): 0.13 µg/mL (≈ 0.156 µM)
- MIC (E. aerogenes DSM-30053): > 64 µg/mL
- MIC (P. mirabilis DSM-2140): > 64 µg/mL
- MIC (S. epidermidis DSM-28765): 1 µg/mL (≈ 1.2 µM)
- MIC (E. faecalis ATCC-29212): 2 µg/mL (≈ 2.4 µM)
- MIC (S. marcescens DSM-30121): > 64 µg/mL
- MIC (A. baumannii DSM-30008): 0.25 µg/mL (≈ 0.301 µM)
- MIC (E. coli WT; large panel, Table 2a): 0.06 µg/mL (≈ 0.0721 µM)
- MIC (P. aeruginosa WT PA14): > 64 µg/mL
- MIC (S. pneumoniae DSM-20566): 0.25 µg/mL (≈ 0.301 µM)
- MIC (P. vulgaris DSM-2140): 0.13 µg/mL (≈ 0.156 µM)
- MIC (E. coli ΔtolC): 0.06 µg/mL (≈ 0.0721 µM)
- MIC [1]: 0.25 µg/mL (≈ 0.301 µM)
- MIC (P. aeruginosa ΔmexAB): 1 µg/mL (≈ 1.2 µM)
- MIC E. coli WT-III [marRΔ74bp] [2]: 0.06 µg/mL (≈ 0.0721 µM)
- IC50 (E. coli gyrase): 110 nM

Compound: CO[C@@H](C(N)=O)[C@H](NC(=O)c1ccc(NC(=O)c2ccc(C#N)cc2)cc1)C(=O)Nc1ccc(C(=O)Nc2ccc(C(=O)Nc3ccc(C(=O)O)cc3)c(O)c2OC(C)C)cc1 [Compound 109, 4-(4-(4-((2S,3R)-4-amino-2-(4-(4-cyanobenzamido)benzamido)-3-methoxy-4-oxobutanamido)benzamido)-2-hydroxy-3-isopropoxybenzamido)benzoic acid]
- MIC (S. aureus Newman): < 0.03 µg/mL
- MIC (E. coli WT DSM-1116): < 0.03 µg/mL
- MIC (E. coli WT; larger panel, Table 2b): 2 µg/mL (≈ 2.38 µM)
- MIC (P. aeruginosa WT PA14): 0.5 µg/mL (≈ 0.594 µM)
- MIC (C. freundii; Citrobacter freundii): < 0.03 µg/mL
- MIC (P. vulgaris; Proteus vulgaris): 0.125 µg/mL (≈ 0.148 µM)
- MIC (K. pneumoniae; Klebsiella pneumoniae): 8 µg/mL (≈ 9.5 µM)
- MIC (P. mirabilis; Proteus mirabilis): 4 µg/mL (≈ 4.75 µM)
- MIC (E. cloacae; Enterobacter cloacae): > 64 µg/mL
- MIC (S. epidermidis; Staphylococcus epidermidis): < 0.03 µg/mL
- MIC (S. marcescens; Serratia marcescens): > 64 µg/mL
- MIC (E. faecalis; Enterococcus faecalis): 0.125 µg/mL (≈ 0.148 µM)
- MIC (E. aerogenes; Klebsiella aerogenes): 2 µg/mL (≈ 2.38 µM)
- MIC (P. aeruginosa ESBL 1; Pseudomonas aeruginosa, ESBL1, larger panel): 2 µg/mL (≈ 2.38 µM)
- MIC (P. aeruginosa ESBL 2; Pseudomonas aeruginosa, ESBL2, larger panel): 1 µg/mL (≈ 1.19 µM)
- MIC (A. baumannii; Acinetobacter baumannii): 1 µg/mL (≈ 1.19 µM)
- MIC (E. coli ΔtolC): < 0.03 µg/mL
- MIC [1]: 0.25 µg/mL (≈ 0.297 µM)
- MIC (P. aeruginosa ΔmexAB): < 0.03 µg/mL
- IC50 (E. coli gyrase): 400 nM

Compound: COc1c(NC(=O)c2ccc(NC(=O)c3ccc(NC(=O)[C@H](CC#N)NC(=O)c4ccc(NC(=O)/C(C)=C/c5ccc(O)cc5)cc4)cc3)c(OC)c2O)ccc(C(=O)O)c1O [Alb, Albicidin, reference compound]
- MIC E. coli WT (E. coli WT; larger panel, Table 2b): 0.06 µg/mL (≈ 0.0712 µM)
- MIC C. freundii (C. freundii): <0.03 µg/mL
- MIC P. vulgaris (P. vulgaris): <0.03 µg/mL
- MIC K. pneumoniae (K. pneumoniae): >64 µg/mL
- MIC P. mirabilis (P. mirabilis): >64 µg/mL
- MIC E. cloacae (E. cloacae): >64 µg/mL
- MIC S. epidermidis (S. epidermidis): 0.5 µg/mL (≈ 0.593 µM)
- MIC S. marcescens (S. marcescens): >64 µg/mL
- MIC E. faecalis (E. faecalis): 4 µg/mL (≈ 4.75 µM)
- MIC E. aerogenes (E. aerogenes): >64 µg/mL
- MIC P. aeruginosa ESBL 1 (P. aeruginosa ESBL 1; larger panel): 16 µg/mL (≈ 19 µM)
- MIC P. aeruginosa ESBL 2 (P. aeruginosa ESBL 2; larger panel): 16 µg/mL (≈ 19 µM)
- MIC A. baumannii (A. baumannii): >64 µg/mL
- MIC E. coli WT-3 [gyrA(S83L, D87G)] ([1]; larger panel, Table 2b): 0.06 µg/mL (≈ 0.0712 µM)
